Data reported in patent EP0154886A2, “Carboxyalkyl dipeptide derivatives, process for their preparation, agents containing them, and their use” (HOECHST AKTIENGESELLSCHAFT, priority 1984, dated 1985).

Assays:
[1] = biological target: Angiotensin-Converting-Enzyme (ACE) (Homo sapiens, UniProt P12821); assay: ACE inhibition in vitro assay (Biochem. Biophys. Acta, 206, 136 (1970)); type: biochemical
[2] = tested on: durch intravenöse Gabe von 310 ng Angiotensin hervorgerufene Pressorreaktion; assay: Inhibition of the angiotensin-induced pressor response in the anaesthetised rat after intraduodenal administration; type: in vivo, Ratte; conditions: narcotised rat
Procedure: Die erfindungsgemäßen Verbindungen der Formel I sind Hemmer des Angiotensin-Converting-Enzyme (ACE), das die Umwandlung von Angiotensin I in das pressorisch wirksame Angiotensin II katalysiert. […] Besonders interessant ist hierbei der langsame Wirkungseintritt und die lange Wirkdauer der Verbindung. So beobachtet man bei intraduodenaler Gabe von 0,3 mg/kg Körpergewicht eine Hemmung um 15 % nach 10 min, 30 % nach 20 min, 60 % nach 30 min und 70 % nach 45 min; die Wirkung hält länger als 6 Stunden an.

Angiotensin-Converting-Enzyme (ACE), sequence (P12821 30-1306, species assumed): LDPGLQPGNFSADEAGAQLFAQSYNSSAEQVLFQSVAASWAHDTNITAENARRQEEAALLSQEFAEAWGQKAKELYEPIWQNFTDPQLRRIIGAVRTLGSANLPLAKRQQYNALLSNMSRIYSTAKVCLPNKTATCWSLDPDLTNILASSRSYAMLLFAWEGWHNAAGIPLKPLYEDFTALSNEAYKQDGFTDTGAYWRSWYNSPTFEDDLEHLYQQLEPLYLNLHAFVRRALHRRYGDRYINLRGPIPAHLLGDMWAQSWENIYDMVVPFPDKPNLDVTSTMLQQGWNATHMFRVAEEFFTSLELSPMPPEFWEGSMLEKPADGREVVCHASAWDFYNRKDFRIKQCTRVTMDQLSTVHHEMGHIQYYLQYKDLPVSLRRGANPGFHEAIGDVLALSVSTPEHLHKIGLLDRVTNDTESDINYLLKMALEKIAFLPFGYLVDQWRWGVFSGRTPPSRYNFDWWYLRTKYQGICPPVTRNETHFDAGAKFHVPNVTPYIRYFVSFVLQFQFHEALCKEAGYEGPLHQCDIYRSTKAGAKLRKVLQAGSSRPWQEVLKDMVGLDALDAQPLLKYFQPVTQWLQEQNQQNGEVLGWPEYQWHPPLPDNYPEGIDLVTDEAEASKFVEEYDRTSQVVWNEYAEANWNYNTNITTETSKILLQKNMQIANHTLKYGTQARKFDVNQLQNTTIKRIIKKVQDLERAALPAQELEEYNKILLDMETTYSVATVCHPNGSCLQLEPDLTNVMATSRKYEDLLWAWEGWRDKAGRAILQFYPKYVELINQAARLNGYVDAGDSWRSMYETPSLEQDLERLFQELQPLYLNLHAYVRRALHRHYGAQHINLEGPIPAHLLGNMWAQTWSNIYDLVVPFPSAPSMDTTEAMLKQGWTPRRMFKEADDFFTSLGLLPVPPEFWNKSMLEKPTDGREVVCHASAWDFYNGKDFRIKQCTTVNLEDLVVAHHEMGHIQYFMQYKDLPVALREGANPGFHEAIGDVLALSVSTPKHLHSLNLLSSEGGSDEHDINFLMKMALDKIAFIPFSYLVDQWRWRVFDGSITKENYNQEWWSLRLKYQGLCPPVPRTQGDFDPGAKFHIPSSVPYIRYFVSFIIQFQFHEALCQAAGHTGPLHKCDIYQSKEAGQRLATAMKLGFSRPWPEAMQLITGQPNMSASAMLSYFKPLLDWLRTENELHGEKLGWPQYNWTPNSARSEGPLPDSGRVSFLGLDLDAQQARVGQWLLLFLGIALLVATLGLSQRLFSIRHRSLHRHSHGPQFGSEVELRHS

Compound: NCCCC[C@H](N[C@@H](CCC1CCCCC1)C(=O)O)C(=O)N1[C@H](C(=O)O)C[C@@H]2CCCC[C@@H]21 [N-(1-S-CarboxY-3-cyclohexyl-propyl)-S-lysyl-2S,3aS,7aS-octahydroindol-2-carbonsäure]
- IC50 [1]: 3.4 nM
- Hemmung ([2]; intraduodenal 0,3 mg/kg Körpergewicht, after 10 min): 15%
- Hemmung ([2]; intraduodenal 0,3 mg/kg Körpergewicht, after 20 min): 30%
- Hemmung ([2]; intraduodenal 0,3 mg/kg Körpergewicht, after 30 min): 60%
- Hemmung ([2]; intraduodenal 0,3 mg/kg Körpergewicht, after 45 min): 70%
- Wirkdauer (die Wirkung hält an) ([2]; intraduodenal 0,3 mg/kg Körpergewicht, duration of effect): > 6 Stunden
- Hemmwirkung auf die Pressorreaktion ([2]; intraduodenal administration, 310 ng Angiotensin i.v., qualitative): starke Hemmwirkung
